Data: patent US20070098735A1, “Methods for the Elimination of Pathogens and Other Particulate Agents” (priority 2005, published 2007)

Assays:
[1] = test system: macrophage phagocytosis in wounded mice; assay: Inhibition of phagocytosis in vivo by gadolinium chloride, wound closure; details: GdCl3 10 mg/kg IV day -1 and day 0; HSP70 30 μg/dose SC day 0
Description: Inhibition of Phagocytosis In vivo. Intravenous injection of gadolinium chloride inhibits phagocytosis of macrophages without affecting their viability or affecting other cell types. Mice were treated (on day minus-1 and day 0) with GdCl3 (10 mg/kg body weight in 200 μl of distilled water) administered intravenously via the retro-orbital venous plexus. Subsequently the mice were wounded as previously described (Day 0) and treated with PBS and HSP70 (30 μg/dose) given subcutaneously on day 0.
Treatment groups shown are (i) HSP70 alone; (ii) HSP70+GdCl3; (iii) PBS alone; and (iv) PBS+GdCl3. *P values were obtained using the Student's t-test by comparing the percent inhibition in wound closure of gadolinium chloride plus treatment to percent wound closure of the treatment alone.

[2] = test system: Murine macrophage lines (RAW264.7, J774.A1 or RAW264NO-); assay: Phagocytosis assay in vitro (uptake of Alexa Fluor 488-labeled particles); format: cell-based; parameters: effect of LR-disrupting drugs on HSP70-mediated phagocytosis: dose or concentration left out as unconfirmed
Description: Phagocytosis Assay in vitro. RAW 264.7, RAW264.7 (NO-) and J774A.1 cells were cultured in DMEM or RPMI (RAW NO-) with 10% FCS, harvested, and washed. 3×10^5 cells/well were incubated in serum-free Earle's minimal essential medium (EMEM) in a 24-well plate for 1 hour at 37° C. Alexa Fluor® 488-labeled particles (inert polystyrene microspheres; or yeast, Saccharomyces cerevisiae or Gram-negative bacteria, Escherichia coli, 40 particles/macrophage) were added and co-incubated in a dark environment for 60 minutes in serum free EMEM with or without HSPs, LPS, or control proteins. At the end of 60 minutes incubation, the plate was covered in a dark container on ice. Specific measures were taken to exclude the fluorescence that resulted from particles that were outside of the cell or sticking to the surface of the cell. […] Specifically, trypan blue (0.8 mg/ml) was added for 60 seconds and plates were analyzed immediately using FluorImager SI (Molecular Dynamics/Amersham). Since the emission of Alexa Fluor® 488, about 519 nm at an excitation of about 490 nm, falls within the absorbance range of trypan blue (475-675 nm), the fluorescence of the sample only represents the intracellular fluorescence. External or surface-bound fluorescence is quenched. Using Student's t test, the results were analyzed and P-values were calculated.
HSP-mediated phagocytosis was quantified by measuring the internalized fluorescence measured by FluorImager SI and Relative Mean Fluorescence Intensity (RMFI) was compared between the treatment groups (as indicated). All the treatment groups were compared to medium alone using the Student's t test and significance denoted by P<0.01. The error bar represents one standard deviation. The results shown are a cumulative analysis of 3 experiments, 3 wells/group.

[3] = test system: lipid raft (LR) microdomain of the macrophage plasma membrane; assay: Binding of exogenous HRP-labeled HSP70 to purified lipid raft fractions; parameters: species or system murine; details: MCD (30 mM); HRP-labeled HSP70 100 μg/ml; Triton X-100
Description: Purification of lipid rafts. Lipid rafts were purified as DRMs (detergent resistant membrane) using non-ionic detergents following sucrose gradient centrifugation. […] After incubation, cells were washed 3× with PBS and lysed with 2 ml MES (4-morpholinoethanesulfonic acid) buffered saline (MBS; 150 mM NaCl, 20 mM MES, pH 6.5, […] and 5 mM iodoacetamide) containing 0.5% Triton X-100 or 1% for 30 minutes on ice or 7 minutes at 37° C. respectively. The cells were mixed with an equal volume of 90% sucrose in MEB buffer (150 mM NaCl, 20 mM MES [pH 6.5]) and placed at the bottom of the centrifuge tube. […] Fractions of 1 ml each were collected from the bottom of tube and each fraction was analyzed by SDS-PAGE and immunoblotting.
Briefly, RAW264.7 macrophages were treated with exogenous HRP-labeled HSP70 (100 μg/ml) or were left untreated for 60 minutes and washed with PBS three times to remove free HSPs. […] These fractions obtained (light: LR and heavy: non-LR) were then analyzed using immunoblotting to detect HRP activity of HSP70-HRP complexes or tested for the presence of an LR-associated ganglioside GM1 by using HRP-cholera toxin B. Similarly, these fractions were tested for the amount of cholesterol using (Biovision Research Products, CA). […]

macrophages = assay: Trypan blue exclusion viability of treated macrophages; details: MCD-treated cells

Row | Compound | inhibition of the HSP70-mediated effects on wound healing [1] | dose dependence of inhibitory effect on macrophage response to HSP70 ([2]; MCD 0-30 mM, HSP70 100 μg/ml) | effect of LR-disrupting drugs on HSP70-mediated phagocytosis ([2]; nystatin or MCD, labeled yeast 40 particles/macrophage) | effect on binding of exogenous HSP70 to lipid rafts [3] | viability (trypan blue exclusion) (macrophages) [%]
1 | [Cl][Gd]([Cl])[Cl] [GdCl3, gadolinium chloride] | up to 67% |  |  |  | 
2 | methyl-β-cyclodextrin [MCD] |  | titratable | HSP70-mediated phagocytosis was inhibited | significant reduction in the binding of exogenously administered HSP70 | 95
